According to PubChem BioAssay (NCI):
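Grown in 96-well plates, cells were treated for 48 hours with each compound at five concentrations. Insufficient inhibition: endpoint recorded as highest concentration tested. At the TGI there is no net growth.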

Experiments:
Assay in all cases: inhibition of tumour cell growth, NCI panel, 48 h
[1] = test system: 786-0 renal
[2] = test system: A549 NSCLC
[3] = test system: ACHN renal
[4] = test system: CAKI-1 renal
[5] = test system: CCRF-CEM leukemia
[6] = test system: COLO 205 colon
[7] = test system: DMS 114 small cell lung
[8] = test system: DMS 273 small cell lung
[9] = test system: EKVX NSCLC
[10] = test system: HCC-2998 colon
[11] = test system: HCT-116 colon
[12] = test system: HCT-15 colon
[13] = test system: HL-60(TB) leukemia
[14] = test system: HOP-18 NSCLC
[15] = test system: HOP-62 NSCLC
[16] = test system: HT29 colon
[17] = test system: IGROV1 ovarian
[18] = test system: K-562 leukemia
[19] = test system: KM12 colon
[20] = test system: KM20L2 colon
[21] = test system: LOX IMVI melanoma
[22] = test system: LXFL 529 NSCLC
[23] = test system: M14 melanoma
[24] = test system: M19-MEL melanoma
[25] = test system: MALME-3M melanoma
[26] = test system: MOLT-4 leukemia
[27] = test system: NCI-H226 lung
[28] = test system: NCI-H23 lung
[29] = test system: NCI-H460 lung
[30] = test system: NCI-H522 lung
[31] = test system: OVCAR-3 ovarian
[32] = test system: OVCAR-4 ovarian
[33] = test system: OVCAR-5 ovarian
[34] = test system: OVCAR-8 ovarian
[35] = test system: RPMI-8226 leukemia
[36] = test system: RXF 393 renal
[37] = test system: SF-268 CNS
[38] = test system: SF-295 CNS
[39] = test system: SK-MEL-2 melanoma
[40] = test system: SK-MEL-28 melanoma
[41] = test system: SK-MEL-5 melanoma
[42] = test system: SK-OV-3 ovarian
[43] = test system: SN12C renal
[44] = test system: SNB-19 CNS
[45] = test system: SNB-75 CNS
[46] = test system: SNB-78 CNS
[47] = test system: SR leukemia
[48] = test system: SW-620 colon
[49] = test system: TK-10 renal
[50] = test system: U251 CNS
[51] = test system: UACC-257 melanoma
[52] = test system: UACC-62 melanoma
[53] = test system: UO-31 renal
[54] = test system: XF 498 CNS

Measured: TGI

COc1ccccc1C1C(Cl)C(=O)N1NC(=O)Cc1ccccc1 (centres undefined)
> 100 µM: all assays above
